Test results: ChEMBL document CHEMBL3627672, “Structure-activity relationship study of syringolin A as a potential anticancer agent” (Bioorg Med Chem Lett, 2015)

Experiments:
CCRF-CEM = assay: Antiproliferative activity against human CCRF-CEM cells after 72 hrs by oxyluciferin luminescence assay
RKO = assay: Antiproliferative activity against human RKO cells after 72 hrs by oxyluciferin luminescence assay
[1] = Antiproliferative activity against human TOV21G cells after 72 hrs by oxyluciferin luminescence assay
[2] = Antiproliferative activity against human RPMI8266 cells after 72 hrs by oxyluciferin luminescence assay; conditions: RPMI8266, 72 h
A-431 = assay: Antiproliferative activity against human A431 cells after 72 hrs by oxyluciferin luminescence assay; conditions: A-431, 72 h
HCT-116 = assay: Antiproliferative activity against human HCT116 cells after 72 hrs by oxyluciferin luminescence assay; conditions: HCT-116, 72 h

| SMILES | IC50 (CCRF-CEM) [nM] | IC50 (RKO) [nM] | IC50 [1] [nM] | IC50 [2] [nM] | IC50 (A-431) [nM] | IC50 (HCT-116) [nM] |
| --- | --- | --- | --- | --- | --- | --- |
| CCCCCCCCCC(=O)N[C@@H](Cc1cccc2ccccc12)C(=O)N[C@H]1/C=C/CCNC(=O)/C=C/[C@H](C(C)C)NC1=O | 1.5 | 31.3 | 13.2 | 7.4 | 29.3 | 31 |
| CCCCCCCCCC(=O)N[C@@H](Cc1ccc2ccccc2c1)C(=O)N[C@H]1/C=C/CCNC(=O)/C=C/[C@H](C(C)C)NC1=O | 5 | 15.2 | 14.1 | 10.9 | 17.8 | 18.5 |
| CCCCCCCCCC(=O)N[C@@H](Cc1ccco1)C(=O)N[C@H]1/C=C/CCNC(=O)/C=C/[C@H](C(C)C)NC1=O | 24.9 | 20.1 | 22.3 | 24.1 | 29.7 | 26.7 |
| CCCCCCCCCC(=O)N[C@@H](Cc1cccs1)C(=O)N[C@H]1/C=C/CCNC(=O)/C=C/[C@H](C(C)C)NC1=O | 11 | 20.8 | 16.7 | 14.4 | 18.7 | 15.5 |
| CCCCCCCCCC(=O)N[C@@H](Cc1ccsc1)C(=O)N[C@H]1/C=C/CCNC(=O)/C=C/[C@H](C(C)C)NC1=O | 4.2 | 11.3 | 10.2 | 5.7 | 15 | 9.1 |
| CCCCCCCCCC(=O)N[C@@H](Cc1c[nH]c2ccccc12)C(=O)N[C@H]1/C=C/CCNC(=O)/C=C/[C@H](C(C)C)NC1=O | 16.8 | 39.4 | 13.5 | 27.5 | 45.5 | 44.5 |
| CCCCCCCCCC(=O)N(C)[C@@H](Cc1ccccc1)C(=O)N[C@H]1/C=C/CCNC(=O)/C=C/[C@H](C(C)C)NC1=O | 197 | > 1000 | > 1000 | > 1000 | > 1000 | > 1000 |
| CCCCC(=O)N[C@@H](Cc1ccccc1)C(=O)N[C@H]1/C=C/CCNC(=O)/C=C/[C@H](C(C)C)NC1=O | 61.1 | 415 | 427 | 138 | 413 | 402 |
| CCCCCC(=O)N[C@@H](Cc1ccccc1)C(=O)N[C@H]1/C=C/CCNC(=O)/C=C/[C@H](C(C)C)NC1=O | 28.6 | 52.6 | 131 | 42.6 | 128 | 61.4 |
| CCCCCCC(=O)N[C@@H](Cc1ccccc1)C(=O)N[C@H]1/C=C/CCNC(=O)/C=C/[C@H](C(C)C)NC1=O | 11.6 | 33.4 | 60.7 | 18.9 | 57.7 | 24.5 |
| CCCCCCCC(=O)N[C@@H](Cc1ccccc1)C(=O)N[C@H]1/C=C/CCNC(=O)/C=C/[C@H](C(C)C)NC1=O | 6.6 | 14.8 | 19 | 9.9 | 20.2 | 14 |
| CCCCCCCCC(=O)N[C@@H](Cc1ccccc1)C(=O)N[C@H]1/C=C/CCNC(=O)/C=C/[C@H](C(C)C)NC1=O | 1.8 | 8.6 | 10.4 | 8.2 | 18.2 | 7.1 |
| CCCCCCCCCCC(=O)N[C@@H](Cc1ccccc1)C(=O)N[C@H]1/C=C/CCNC(=O)/C=C/[C@H](C(C)C)NC1=O | 7.4 | 19.2 | 19.3 | 14.4 | 38.2 | 36 |
| CCCCCCCCCCCC(=O)N[C@@H](Cc1ccccc1)C(=O)N[C@H]1/C=C/CCNC(=O)/C=C/[C@H](C(C)C)NC1=O | 14.8 | 33.6 | 27.5 | 29.6 | 44.8 | 37.4 |
| CCCCCCCCCCCCC(=O)N[C@@H](Cc1ccccc1)C(=O)N[C@H]1/C=C/CCNC(=O)/C=C/[C@H](C(C)C)NC1=O | 36.9 | 49.8 | 48.3 | 88.3 | 82.2 | 73.9 |
| CCCCCCCCCCCCCC(=O)N[C@@H](Cc1ccccc1)C(=O)N[C@H]1/C=C/CCNC(=O)/C=C/[C@H](C(C)C)NC1=O | 409 | 470 | 425 | 735 | 430 | 413 |
| CCCCCCCCCC(=O)N[C@H](C(=O)N[C@H]1/C=C/CCNC(=O)/C=C/[C@H](C(C)C)NC1=O)c1ccccc1 | 11 | 20.8 | 9.5 | 26.9 | 27.8 | 45.1 |
| CCCCCCCCCC(=O)N[C@@H](CCc1ccccc1)C(=O)N[C@H]1/C=C/CCNC(=O)/C=C/[C@H](C(C)C)NC1=O | 11.6 | 27 | 9.6 | 14.9 | 16.8 | 28.4 |
| CCCCCCCCCC(=O)N[C@@H](CCCc1ccccc1)C(=O)N[C@H]1/C=C/CCNC(=O)/C=C/[C@H](C(C)C)NC1=O | 9.4 | 39.8 | 8.5 | 23.5 | 31.7 | 40.6 |

| SMILES | IC50 (CCRF-CEM) [nM] | IC50 (RKO) [nM] | IC50 [1] [nM] | IC50 [2] [nM] | IC50 (A-431) [nM] | IC50 (HCT-116) [nM] |
| --- | --- | --- | --- | --- | --- | --- |
| CCCCCCCCCC(=O)N[C@@H](CC1CCCCC1)C(=O)N[C@H]1/C=C/CCNC(=O)/C=C/[C@H](C(C)C)NC1=O | 21.4 | 35.1 | 48.9 | 21 | 52.8 | 38.6 |
| CCCCCCCCCC(=O)N[C@@H](Cc1ccccc1F)C(=O)N[C@H]1/C=C/CCNC(=O)/C=C/[C@H](C(C)C)NC1=O | 3.3 | 6.8 | 8.2 | 5.6 | 14.9 | 7.1 |
| CCCCCCCCCC(=O)N[C@@H](Cc1cccc(F)c1)C(=O)N[C@H]1/C=C/CCNC(=O)/C=C/[C@H](C(C)C)NC1=O | 5.5 | 11.8 | 21.1 | 8.8 | 27.7 | 15 |
| CCCCCCCCCC(=O)N[C@@H](Cc1ccc(F)cc1)C(=O)N[C@H]1/C=C/CCNC(=O)/C=C/[C@H](C(C)C)NC1=O | 4.9 | 14.8 | 19 | 8.6 | 33.2 | 23.1 |
| CCCCCCCCCC(=O)N[C@@H](Cc1ccccc1Cl)C(=O)N[C@H]1/C=C/CCNC(=O)/C=C/[C@H](C(C)C)NC1=O | 8.2 | 7.4 | 7.1 | 8.8 | 9.9 | 8.7 |
| CCCCCCCCCC(=O)N[C@@H](Cc1cccc(Cl)c1)C(=O)N[C@H]1/C=C/CCNC(=O)/C=C/[C@H](C(C)C)NC1=O | 5.2 | 14.9 | 13.8 | 9.4 | 18.4 | 15.6 |
| CCCCCCCCCC(=O)N[C@@H](Cc1ccc(Cl)cc1)C(=O)N[C@H]1/C=C/CCNC(=O)/C=C/[C@H](C(C)C)NC1=O | 4.5 | 19.6 | 12.3 | 12 | 23.3 | 21.7 |
| CCCCCCCCCC(=O)N[C@@H](Cc1ccccc1Br)C(=O)N[C@H]1/C=C/CCNC(=O)/C=C/[C@H](C(C)C)NC1=O | 3.9 | 13 | 9.6 | 9.4 | 13.4 | 13.4 |
| CCCCCCCCCC(=O)N[C@@H](Cc1cccc(Br)c1)C(=O)N[C@H]1/C=C/CCNC(=O)/C=C/[C@H](C(C)C)NC1=O | 4.6 | 16.3 | 12.8 | 9.6 | 15.5 | 18 |
| CCCCCCCCCC(=O)N[C@@H](Cc1ccc(Br)cc1)C(=O)N[C@H]1/C=C/CCNC(=O)/C=C/[C@H](C(C)C)NC1=O | 18.4 | 33.7 | 24.1 | 28.3 | 25.6 | 33.4 |
| CCCCCCCCCC(=O)N[C@@H](Cc1ccccc1C)C(=O)N[C@H]1/C=C/CCNC(=O)/C=C/[C@H](C(C)C)NC1=O | 3.6 | 9.5 | 6.2 | 8.8 | 8.9 | 12 |
| CCCCCCCCCC(=O)N[C@@H](Cc1cccc(C)c1)C(=O)N[C@H]1/C=C/CCNC(=O)/C=C/[C@H](C(C)C)NC1=O | 3.5 | 7.3 | 6.2 | 8.4 | 6.9 | 7 |
| CCCCCCCCCC(=O)N[C@@H](Cc1ccc(C)cc1)C(=O)N[C@H]1/C=C/CCNC(=O)/C=C/[C@H](C(C)C)NC1=O | 1.9 | 15.5 | 9.1 | 4.8 | 18.9 | 28.1 |
| CCCCCCCCCC(=O)N[C@@H](Cc1ccc(O)cc1)C(=O)N[C@H]1/C=C/CCNC(=O)/C=C/[C@H](C(C)C)NC1=O | 32.3 | 43.7 | 151 | 28.3 | 134 | 68.5 |
| CCCCCCCCCC(=O)N[C@@H](Cc1ccccn1)C(=O)N[C@H]1/C=C/CCNC(=O)/C=C/[C@H](C(C)C)NC1=O | 8.6 | 18.2 | 10.7 | 15 | 23.5 | 19.2 |
| CCCCCCCCCC(=O)N[C@@H](Cc1cccnc1)C(=O)N[C@H]1/C=C/CCNC(=O)/C=C/[C@H](C(C)C)NC1=O | 27.5 | 17.1 | 5.1 | 15.5 | 24.4 | 29.4 |
| CCCCCCCCCC(=O)N[C@@H](Cc1ccncc1)C(=O)N[C@H]1/C=C/CCNC(=O)/C=C/[C@H](C(C)C)NC1=O | 35.7 | 47.3 | 14.5 | 72.6 | 50.3 | 56.3 |
| CCCCCCCCCC(=O)N[C@@H](Cc1ccc(-c2ccccc2)cc1)C(=O)N[C@H]1/C=C/CCNC(=O)/C=C/[C@H](C(C)C)NC1=O | 12.3 | 30.4 | 16.8 | 19.7 | 21.9 | 27.1 |
